pEC50: −log10 of the molar value.

EC50 data for 19 compounds are collected here from US20260315483A1, “HETEROCYCLIC COMPOUNDS AS TRIGGERING RECEPTOR EXPRESSED ON MYELOID CELLS 2 AGONISTS AND METHODS OF USE” (VIGIL NEUROSCIENCE, INC., priority 2023, published 2026).

The first test deals with T1, human TREM2 (Homo sapiens, UniProt Q9NZC2).
T1 construct: expressed in transfected cells; host or cells: HEK293T-hTREM2 cells (HEK cell line expressing human TREM2 and DAP12)
T1 sequence (Q9NZC2 19-230): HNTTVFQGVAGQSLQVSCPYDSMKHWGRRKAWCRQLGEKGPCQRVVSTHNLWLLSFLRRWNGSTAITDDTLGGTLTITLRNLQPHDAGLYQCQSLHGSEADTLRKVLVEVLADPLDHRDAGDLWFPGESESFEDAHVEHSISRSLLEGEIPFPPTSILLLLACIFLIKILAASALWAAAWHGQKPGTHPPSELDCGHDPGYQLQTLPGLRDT
T1 sequence (O43914 22-113 partner): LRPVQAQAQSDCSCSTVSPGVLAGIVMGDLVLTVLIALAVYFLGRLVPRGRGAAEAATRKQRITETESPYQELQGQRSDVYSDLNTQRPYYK
The test can be described thus: In vitro measurement of TREM2 activity using cellular phosphorylation of spleen tyrosine kinase (Syk), AlphaLisa, HEK293T-hTREM2 cells. Conditions: HEK293T cells expressing human TREM2 and DAP12, 45 min at room temperature, Table D. The class given is cell-based. On the procedure: In Vitro Measurement of Triggering Receptor Expressed on Myeloid Cells 2 Activity Using Cellular Phosphorylation of Spleen Tyrosine Kinase (“Syk”) Assays
Measurement of TREM2 agonist potency was done using a HEK cell line expressing human TREM2 and DAP12 (HEK293T-hTREM2 cells). Binding of small molecules to, and activation of, TREM2 increases the phosphorylation of Syk. The resultant levels of Syk phosphorylation are measured using a commercial AlphaLisa reagent kit. To perform the assay, HEK-hTREM2 cells were plated at 14,000 cells per well in a 384 well plate, in 25 μL of complete growth media and incubated at 37° C., 5% CO2 for 20-24 hours.
Prior to the assay, test compounds were diluted in the 384 well plates in assay buffer and allowed to equilibrate for 30 minutes. Growth media was removed from cell plates by inversion on blotting paper, and 25 μL of test articles in assay buffer was added to cells. Cells were incubated for 45 minutes at room temperature. After 45 minutes, assay buffer was removed and 10 μL of lysis buffer was added. Plates were shaken for 20 minutes at 350 RPM at room temperature. After complete lysis, AlphaLisa reagents were added to the lysate, and fluourescence intensity was measured using a Perkin Elmer Envision plate reader. Intensities were used to generate a standard curve, and % activation was calculated. Curve fitting was performed using Prism v9 software, log(agonist) vs response—variable slope (four parameters), and EC50s were calculated from the curve fit.
The results presented in Tables D and D-2 have been generated with the in vitro assay described above. This assay may be used to test any of the compounds described herein to assess and characterize a compound's ability to act as an agonist of TREM2.
Consider `CN(C)c1nc2nc(C3CCO[C@@H](c4cnn(C5CC5)c4)C3)nc(-c3cc(F)ccc3F)c2s1` (mixture of isomers) [compound 104, 7-(2,5-difluorophenyl)-N,N-dimethyl-5-[rac-(2R)-2-(1-cyclopropylpyrazol-4-yl)tetrahydropyran-4-yl]thiazolo[4,5-d]pyrimidin-2-amine], for which the pEC50 was 6.30 to 7.30.
For the compound `CN(C)c1nc2nc([C@@H]3CCO[C@@H](c4cnn(C5CC5)c4)C3)nc(-c3cc(F)c(Cl)cc3F)c2s1` (racemic) [compound 106, 7-(4-chloro-2,5-difluoro-phenyl)-N,N-dimethyl-5-[rac-(2R,4R)-2-(1-cyclopropylpyrazol-4-yl)tetrahydropyran-4-yl]thiazolo[4,5-d]pyrimidin-2-amine], the pEC50 is 4.00 to 5.52.
`CN(C)c1nc2nc(C3CCO[C@@H](c4cnn(C5CC5)c4)C3)nc(-c3ccc(F)c(F)c3F)c2s1` (stereo in doubt) [compound 107, 5-[(2R,4R)-2-(1-cyclopropylpyrazol-4-yl)tetrahydropyran-4-yl]-N,N-dimethyl-7-(2,3,4-trifluorophenyl)thiazolo[4,5-d]pyrimidin-2-amine] showed a pEC50 of at least 7.30.
Same read-out and setting: next, `CN(C)c1nc2nc(C3CCO[C@@H](c4cnn(C5CC5)c4)C3)nc(-c3ccc(F)c(F)c3F)c2s1` (stereo in doubt) [compound 108, 5-[(2R,4S)-2-(1-cyclopropylpyrazol-4-yl)tetrahydropyran-4-yl]-N,N-dimethyl-7-(2,3,4-trifluorophenyl)thiazolo[4,5-d]pyrimidin-2-amine]: 6.30 to 7.30.
Same read-out and setting: next, `CN(C)c1nc2nc([C@H]3CCO[C@@H](c4ccc(=O)n(C)c4)C3)nc(-c3ccc(F)cc3F)c2s1` (stereo in doubt) [compound 119, 5-[(2R,4S)-4-[7-(2,4-difluorophenyl)-2-(dimethylamino)thiazolo[4,5-d]pyrimidin-5-yl]tetrahydropyran-2-yl]-1-methyl-pyridin-2-one]: 6.30 to 7.30; `CN(C)c1nc2nc([C@@H]3CCO[C@H](c4ccc(=O)n(C)c4)C3)nc(-c3ccc(F)cc3F)c2s1` (stereo in doubt) [compound 120, 5-[(2S,4R)-4-[7-(2,4-difluorophenyl)-2-(dimethylamino)thiazolo[4,5-d]pyrimidin-5-yl]tetrahydropyran-2-yl]-1-methyl-pyridin-2-one]: at least 7.30.
Still for that read-out and setting: the value for `CN(C)c1nc2nc([C@H]3CCO[C@H](c4ccc(=O)n(C)c4)C3)nc(-c3ccc(F)cc3F)c2s1` (stereo in doubt) [compound 121, 5-[(2S,4S)-4-[7-(2,4-difluorophenyl)-2-(dimethylamino)thiazolo[4,5-d]pyrimidin-5-yl]tetrahydropyran-2-yl]-1-methyl-pyridin-2-one] was 6.30 to 7.30; that for `CN(C)c1nc2nc(N3CCO[C@@H](c4cnn(C5CC5)c4)C3)nc(-c3ccc(F)cc3F)c2s1` [compound 100, 5-[(2S)-2-(1-cyclopropylpyrazol-4-yl)morpholin-4-yl]-7-(2,4-difluorophenyl)-N,N-dimethyl-thiazolo[4,5-d]pyrimidin-2-amine] was at least 7.30; that for `CN(C)c1nc2nc(N3CCO[C@H](c4cnn(C5CC5)c4)C3)nc(-c3ccc(F)cc3F)c2s1` [compound 101, 5-[(2R)-2-(1-cyclopropylpyrazol-4-yl)morpholin-4-yl]-7-(2,4-difluorophenyl)-N,N-dimethyl-thiazolo[4,5-d]pyrimidin-2-amine] was 6.30 to 7.30.
In the case of `C[C@@H]1CN(c2nc(-c3ccc(C(F)F)cc3F)c3sc(N(C)C)nc3n2)C[C@H](c2cnn(C3CC3)c2)O1` [compound 102, 5-[(2S,6R)-2-(1-cyclopropylpyrazol-4-yl)-6-methyl-morpholin-4-yl]-7-[4-(difluoromethyl)-2-fluoro-phenyl]-N,N-dimethyl-thiazolo[4,5-d]pyrimidin-2-amine], the pEC50 was at least 7.30.
The same measure, in the same setting: next, `CN(C)c1nc2nc([C@H]3CCO[C@@H](c4cnn(C5CC5)c4)C3)nc(-c3ccc(C(F)F)cc3F)c2s1` [compound 103, 5-[(2R,4S)-2-(1-cyclopropylpyrazol-4-yl)tetrahydropyran-4-yl]-7-[4-(difluoromethyl)-2-fluoro-phenyl]-N,N-dimethyl-thiazolo[4,5-d]pyrimidin-2-amine]: 6.30 to 7.30; `CN(C)c1nc2nc([C@H]3CCO[C@@H](c4cnn(C5CC5)c4)C3)nc(-c3cc(F)c(Cl)cc3F)c2s1` [compound 105, 7-(4-chloro-2,5-difluoro-phenyl)-N,N-dimethyl-5-[(2R,4S)-2-(1-cyclopropylpyrazol-4-yl)tetrahydropyran-4-yl]thiazolo[4,5-d]pyrimidin-2-amine]: at least 7.30; `C[C@@H]1CN(c2nc(-c3ccc(F)cc3F)c3sc(N4CCC[C@H]4C)nc3n2)C[C@H](c2cnn(C3CC3)c2)O1` [compound 109, (2S,6R)-2-(1-cyclopropyl-1H-pyrazol-4-yl)-4-(7-(2,4-difluorophenyl)-2-((R)-2-methylpyrrolidin-1-yl)thiazolo[4,5-d]pyrimidin-5-yl)-6-methylmorpholine]: at least 7.30.
On the same count and under the same terms, next, `Cc1ccc(-c2nc(N3C[C@@H](C)O[C@@H](c4cnn(C5CC5)c4)C3)nc3nc(N(C)C)sc23)c(F)c1` [compound 110, 5-[(2S,6R)-2-(1-cyclopropylpyrazol-4-yl)-6-methyl-morpholin-4-yl]-7-(2-fluoro-4-methyl-phenyl)-N,N-dimethyl-thiazolo[4,5-d]pyrimidin-2-amine]: at least 7.30; `C[C@@H]1CN(c2cc(-c3ccc(F)cc3F)c3sccc3n2)C[C@H](c2cnn(C3CC3)c2)O1` [compound 111, (2S,6R)-2-(1-cyclopropylpyrazol-4-yl)-4-[7-(2,4-difluorophenyl)thieno[3,2-b]pyridin-5-yl]-6-methyl-morpholine]: 5.52 to 6.30; `C[C@@H]1CN(c2nc(-c3ccc(F)cc3F)c3sc(N4CCC[C@@H]4C)nc3n2)C[C@H](c2cnn(C3CC3)c2)O1` [compound 112, (2S,6R)-2-(1-cyclopropylpyrazol-4-yl)-4-[7-(2,4-difluorophenyl)-2-[(2S)-2-methylpyrrolidin-1-yl]thiazolo[4,5-d]pyrimidin-5-yl]-6-methyl-morpholine]: at least 7.30.
Same read-out and setting: next, `CC(C)c1nc2nc(N3C[C@@H](C)O[C@@H](c4cnn(C5CC5)c4)C3)nc(-c3ccc(F)cc3F)c2s1` [compound 113, (2S,6R)-2-(1-cyclopropyl-1H-pyrazol-4-yl)-4-(7-(2,4-difluorophenyl)-2-isopropylthiazolo[4,5-d]pyrimidin-5-yl)-6-methylmorpholine]: at least 7.30.
Consider `CCCc1nc2nc(N3C[C@@H](C)O[C@@H](c4cnn(C5CC5)c4)C3)nc(-c3ccc(F)cc3F)c2s1` [compound 114, (2S,6R)-2-(1-cyclopropyl-1H-pyrazol-4-yl)-4-(7-(2,4-difluorophenyl)-2-propylthiazolo[4,5-d]pyrimidin-5-yl)-6-methylmorpholine], for which the pEC50 was at least 7.30.

Staying with this test, now noted: HEK293T cells expressing human TREM2 and DAP12, 45 min at room temperature, Table D-2.
Turning to `C[C@@H]1CN(c2cc3c(c(C4CCC(C(F)(F)F)CC4)n2)CN(C)C3=O)C[C@H](c2cnn(C3CC3)c2)O1` (mixture of isomers) [compound 227, 6-[(2S,6R)-2-(1-cyclopropylpyrazol-4-yl)-6-methyl-morpholin-4-yl]-2-methyl-4-[4-(trifluoromethyl)cyclohexyl]-3H-pyrrolo[3,4-c]pyridin-1-one], the pEC50 is 6.30 to 7.30.

What is called pEC50 is −log10 of the EC50, conventionally taken in molar units. Low readings indicate a high EC50, high ones a low EC50.
